SMILES strings stand for the structures. Where a name gives a salt, the structure may show the parent alone.

The subject of the series is healthy male subjects. The series is described as follows: Two step infusion study in healthy male subjects: safety and tolerability. It is filed as in vivo, human. As to the method:
A double-blind, placebo-controlled, randomized, single iv dose, two periods cross-over study to assess the safety, tolerability, pharmacodynamics and pharmacokinetics during and following a two step infusion of Tedisamil in healthy male subjects was performed with the following drug and dosages: Tedisamil dihydrochloride/0.4 mg/kg body weight infused over 30 minutes.
Screening assessments included physical examination, ECG, HIV/Hepatitis screening, blood pressure and heart rate measurements, clinical laboratory determinations, urine drug screen, alcohol breath test, and medical history. Follow-up assessments included physical examination, ECG, blood pressure and heart rate measurements, clinical laboratory determinations, and questions for adverse events and concomitant medication. During concomitant administration of Tedisamil, blood pressure, heart rate, and ECGs were recorded. Adverse events and concomitant medication were monitored throughout the study.
Subjects who received study medication, were considered valid for safety evaluation.
Treatment emergent adverse events, defined as any adverse event present at baseline that worsened or any event that began after treatment with study medication, were summarized by COSTART term for each treatment group. Each adverse event was evaluated for frequency of occurrence, duration, intensity, action taken, outcome, and relationship to administration of the study medication. Adverse events were listed for each subject.
Listings of abnormal or out of range values for each subject were presented for vital signs, laboratory assays, and physical examinations. Adverse events, blood pressure, heart rate and clinical laboratory data were analyzed descriptively and reviewed to evaluate the safety of all randomized subjects. Any clinical abnormalities were described.

As for `C1CCC2(C1)C1CN(CC3CC3)CC2CN(CC2CC2)C1` [tedisamil dihydrochloride, N,N′-dicyclopropylmethyl-9,9-tetramethylen-3,7-diazabicyclo[3,3,1]nonane dihydrochloride], the “Findings in hematology, clinical chemistry, urinalysis and vital signs” value (0.4 mg/kg iv two step infusion) is “No clinically relevant findings”. Besides, for the setting “two step infusion of 0.4 mg tedisamil dihydrochloride per kg (0.32 mg/kg base), dihydrochloride”, the Safety and tolerability entry is on record as “well tolerated”.
